Among the test systems are SK-MEL-5 melanoma; KM12 colon; HOP-92 NSCLC; UACC-62 melanoma; HCT-15 colon; OVCAR-5 ovarian; OVCAR-8 ovarian; NCI-H522 lung; NCI-H23 lung; ACHN renal; MALME-3M melanoma; SF-295 CNS; SNB-75 CNS; HS 578T breast; OVCAR-4 ovarian; RPMI-8226 leukemia; T-47D breast; 786-0 renal; A549 NSCLC.
What all share (assay): growth of human tumour cells (NCI), 48 h

This note sets out measurements from PubChem BioAssay (NCI).

The structures appear in SMILES notation.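 Five concentrations, 48 hours, 96-well plates. TGI denotes the concentration required for complete inhibition of growth.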

Turning to `O=S(=O)(O)CCCC1S(=O)(=O)OCCOS1(=O)=O`, the TGI in the assay with SK-MEL-5 melanoma, in the assay with KM12 colon, in the assay with HOP-92 NSCLC, in the assay on UACC-62 melanoma, in the assay on HCT-15 colon and in the assay on OVCAR-5 ovarian was over 100 µM each time. Moreover, the TGI in the assay on OVCAR-8 ovarian, in the assay with NCI-H522 lung, in the assay with NCI-H23 lung, in the assay on ACHN renal, in the assay on MALME-3M melanoma and with SF-295 CNS was over 100 µM in each case. For the same compound, the TGI in the assay with SNB-75 CNS, in the assay with HS 578T breast, with OVCAR-4 ovarian, in the assay on RPMI-8226 leukemia, in the assay on T-47D breast and with 786-0 renal was over 100 µM throughout.
Regarding `O=c1[nH]c2ccc(Cl)cc2c2oc(-c3ccccc3)nc12`, the TGI in the assay with A549 NSCLC is 54.3 µM; with SK-MEL-5 melanoma, 85.8 µM; with KM12 colon, over 100 µM; with HOP-92 NSCLC it was 52.2 µM; with UACC-62 melanoma it was over 100 µM; with HCT-15 colon, over 100 µM. The TGI was over 100 µM with OVCAR-5 ovarian; 24.8 µM with OVCAR-8 ovarian; 32.3 µM in the assay with NCI-H522 lung; 74.9 µM in the assay on NCI-H23 lung; 51.3 µM with ACHN renal; 78 µM in the assay with MALME-3M melanoma. Besides, the TGI with SF-295 CNS amounted to 46.6 µM; in the assay on HS 578T breast, 41.2 µM; in the assay on OVCAR-4 ovarian, 35.4 µM; with RPMI-8226 leukemia, 64.7 µM; with T-47D breast, 50.4 µM; in the assay with 786-0 renal, 30 µM.
With `Cc1n[nH]c(=O)n1C1CCCC1`, the TGI in the assay on A549 NSCLC, with SK-MEL-5 melanoma, in the assay with KM12 colon, in the assay with HOP-92 NSCLC, in the assay on HCT-15 colon and in the assay on OVCAR-5 ovarian was over 100 µM throughout. In addition, the TGI with OVCAR-8 ovarian, in the assay on NCI-H522 lung, in the assay with NCI-H23 lung, in the assay with ACHN renal, in the assay on MALME-3M melanoma and in the assay on SF-295 CNS was over 100 µM in each case. Also, the TGI in the assay with SNB-75 CNS, in the assay with HS 578T breast, with OVCAR-4 ovarian, in the assay with RPMI-8226 leukemia, in the assay on T-47D breast and in the assay on 786-0 renal was over 100 µM throughout.
In the case of `Cn1ccc(C(=O)N2CCSC2=S)c(OCc2ccccc2)c1=O`, the TGI in the assay with A549 NSCLC, in the assay with SK-MEL-5 melanoma, in the assay with KM12 colon, in the assay with HOP-92 NSCLC, in the assay with UACC-62 melanoma and with HCT-15 colon was over 100 µM throughout. The TGI with OVCAR-8 ovarian, with NCI-H522 lung, with NCI-H23 lung, in the assay on ACHN renal, with MALME-3M melanoma and in the assay on SNB-75 CNS was over 100 µM each time. For the same compound, the TGI in the assay on HS 578T breast, in the assay on OVCAR-4 ovarian, with RPMI-8226 leukemia, in the assay on T-47D breast and in the assay on 786-0 renal was over 100 µM throughout.
With `O=C(N/N=C(/COc1ccc(Cl)cc1)N=Cc1cccnc1)c1ccncc1`, the TGI in the assay on A549 NSCLC is over 100 µM; with KM12 colon, over 100 µM; in the assay with HOP-92 NSCLC, 84.5 µM; in the assay on UACC-62 melanoma it was over 100 µM; in the assay with HCT-15 colon it was over 100 µM; in the assay on OVCAR-5 ovarian, over 100 µM. For the same compound, the TGI is over 100 µM in the assay with OVCAR-8 ovarian; 66.7 µM with NCI-H522 lung; over 100 µM with NCI-H23 lung; over 100 µM with ACHN renal; over 100 µM in the assay on MALME-3M melanoma; over 100 µM with SF-295 CNS. Besides, the TGI in the assay with SNB-75 CNS was over 100 µM; in the assay on HS 578T breast, 94.9 µM; in the assay on OVCAR-4 ovarian, over 100 µM; in the assay with RPMI-8226 leukemia, over 100 µM; in the assay on T-47D breast, over 100 µM; with 786-0 renal, over 100 µM.
With `CC(C)C[C@H](NC(=O)[C@H](Cc1ccccc1)NC(=O)CCc1ccccc1)B(O)O`, the TGI with A549 NSCLC was 0.0919 µM; in the assay on SK-MEL-5 melanoma, under 0.01 µM; with KM12 colon, 0.0101 µM; with HOP-92 NSCLC it was under 0.01 µM; with HCT-15 colon, under 0.01 µM; with OVCAR-5 ovarian, under 0.01 µM. For the same compound, the TGI with OVCAR-8 ovarian, in the assay on NCI-H522 lung, with NCI-H23 lung, with ACHN renal, with MALME-3M melanoma and in the assay on SF-295 CNS was under 0.01 µM each time. The TGI is under 0.01 µM in the assay with SNB-75 CNS; under 0.01 µM in the assay on HS 578T breast; under 0.01 µM in the assay on OVCAR-4 ovarian; over 100 µM in the assay on RPMI-8226 leukemia; under 0.01 µM with T-47D breast; under 0.01 µM in the assay on 786-0 renal.
On to `O=[N+]([O-])c1ccc(-c2nc3ccc([N+](=O)[O-])cc3[nH]2)cc1`, for which the TGI with A549 NSCLC is 62.7 µM; with SK-MEL-5 melanoma, 44.9 µM; in the assay on KM12 colon it was over 100 µM; with HOP-92 NSCLC, 59.4 µM; with UACC-62 melanoma, over 100 µM; in the assay with HCT-15 colon it was over 100 µM. Also, the TGI in the assay on OVCAR-8 ovarian was over 100 µM; with NCI-H522 lung it was 88.4 µM; in the assay on NCI-H23 lung it was 65.3 µM; in the assay on ACHN renal, over 100 µM; with MALME-3M melanoma it was 84.2 µM; with SF-295 CNS, 66.1 µM. The TGI with SNB-75 CNS was over 100 µM; in the assay with HS 578T breast, over 100 µM; in the assay with OVCAR-4 ovarian, over 100 µM; with RPMI-8226 leukemia, over 100 µM; with T-47D breast it was 61.7 µM; with 786-0 renal it was over 100 µM.
In the case of `CCOc1ccc(Nc2nc3c(s2)C(=O)c2ccccc2C3=O)cc1`, the TGI was 44.3 µM with A549 NSCLC; 4.07 µM in the assay on SK-MEL-5 melanoma; 27.9 µM in the assay with KM12 colon; 27.6 µM with HOP-92 NSCLC; 5.13 µM with UACC-62 melanoma; over 100 µM in the assay on HCT-15 colon. Further, the TGI was 40 µM in the assay with OVCAR-5 ovarian; 78.7 µM with NCI-H522 lung; 28.9 µM with ACHN renal; 8.19 µM in the assay on MALME-3M melanoma; 23.5 µM in the assay with SF-295 CNS; 24 µM in the assay with SNB-75 CNS. Also, the TGI in the assay with HS 578T breast was over 100 µM; in the assay on OVCAR-4 ovarian, 21.3 µM; in the assay with RPMI-8226 leukemia, over 100 µM; in the assay on T-47D breast it was 49.9 µM; in the assay with 786-0 renal it was 31.2 µM.
